From patent US12116358B2, “Substituted indoles and methods of use thereof” (EPIZYME, INC., priority 2018, dated 2024)
Read-outs that look alike come from different tables or passages of the source.

What was measured:
H3K36me3 in A549 cells = test: In-Cell Western (ICW) assay of SETD2 inhibitors (A549 assay); type: cell-based, human; conditions: A549 cells, read-out: SETD2 A549
Method in brief: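 H3K36me3 In-Cell Western: cells exposed to compound for 3 days at 4,000 cells/well, 37° C. DRAQ5 (1:1000) marked cell number, with 700/800-channel Licor read-out.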

SETD2(1434-1711) = biological target: T1, SETD2(1434-1711) (Homo sapiens, UniProt Q9BYW2); test: SETD2 (1434-1711) assay; type: biochemical; conditions: read-out: SETD2 (1434-1711)
T1 construct: SETD2 (1434-1711) Assay; catalogue N/A
T1 sequence (Q9BYW2 1434-1711): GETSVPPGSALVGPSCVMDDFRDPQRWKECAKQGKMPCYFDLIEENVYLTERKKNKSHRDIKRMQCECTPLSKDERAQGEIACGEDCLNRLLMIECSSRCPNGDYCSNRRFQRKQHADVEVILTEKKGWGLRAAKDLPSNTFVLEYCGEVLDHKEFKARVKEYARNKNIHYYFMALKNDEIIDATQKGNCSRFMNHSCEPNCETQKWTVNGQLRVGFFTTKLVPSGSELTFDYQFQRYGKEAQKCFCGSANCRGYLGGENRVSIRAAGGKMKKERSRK

Structure (SMILES)	IC50 (H3K36me3 in A549 cells; Homo sapiens)	IC50 (SETD2(1434-1711))	IC50 (H3K36me3 in A549 cells)
Cc1ccc(N2CCN(S(=O)(=O)CCN)CC2)cc1NC(=O)c1cc2cccc(C)c2[nH]1 [compound 476]	9.1 µM	0.8 µM	–
Cc1ccc(F)c2cc(C(=O)Nc3cccc(N(C)C4CCNCC4)c3)[nH]c12 [compound 325]	1.5 µM	0.07 µM	–
Cc1ccc(F)c2cc(C(=O)Nc3cccc(N4CCN(C)C(=O)C4)c3)[nH]c12 [compound 58]	–	0.04 µM	0.1 µM
Cc1ccc(F)c2cc(C(=O)NC3CCCN(C4CCN(C)C(=O)C4)C3)[nH]c12 (stereo not drawn) [compound 367]	–	4.2 µM	> 2 µM
Cc1cccc2cc(C(=O)NCC(C)c3ccccc3N3CCOCC3)[nH]c12 (stereo not drawn) [compound 483]	–	4.1 µM	10.3 µM
Cc1cc(CC(=O)O)cnc1C(NC(=O)c1cc2c(F)ccc(C)c2[nH]1)C1CC1 (stereo not drawn) [compound 542]	> 25 µM	2.4 µM	–
COCCN(C(C)=O)C1CCN(C2CCCC(NC(=O)c3cc4c(F)ccc(C)c4[nH]3)C2)C1 (stereo not drawn) [compound 844]	–	8.5 µM	> 2 µM
Cc1cccc2cc(C(=O)Nc3ccc4ccc(C(=O)N5CCN(C)CC5)cc4c3)[nH]c12 [compound 448]	–	0.9 µM	5.5 µM
Cc1ccc(F)c2cc(C(=O)N[C@H]3CCC[C@H](N4CCCOCC4)C3)[nH]c12 [compound 362]	> 2 µM	1.4 µM	–
Cc1cccc2cc(C(=O)N3CCCC34CCc3ccccc34)[nH]c12 (stereo not drawn) [compound 619]	> 25 µM	> 200 µM	–
Cc1ccc(F)c2cc(C(=O)Nc3cccc(N4CC(C)OCC4C)c3)[nH]c12 (stereo not drawn) [compound 289]	1.1 µM	0.4 µM	–
Cc1cc(-c2ncc[nH]2)cnc1C(NC(=O)c1cc2cccc(C)c2[nH]1)C1CC1 (stereo not drawn) [compound 445]	5.2 µM	1.4 µM	–
Cc1cc(CCNC(=O)Cc2cccnc2)cnc1C(NC(=O)c1cc2cccc(C)c2[nH]1)C1CC1 (stereo not drawn) [compound 447]	–	2.8 µM	5.5 µM
Cc1ccc(F)c2cc(C(=O)Nc3cccc(N4CCCN(C)CC4)c3)[nH]c12 [compound 279]	0.9 µM	0.04 µM	–
Cc1ccc(F)c2cc(C(=O)N[C@@H]3CCCC(N4CCC5(CC4)CNC(=O)N5)C3)[nH]c12 (stereo partly drawn) [compound 890]	> 2 µM	0.1 µM	–
Cc1ccc(F)c2cc(C(=O)Nc3cccc(-c4nnc(N)o4)c3)[nH]c12 [compound 319]	1.4 µM	0.1 µM	–
CC(=O)N1CCN([C@@H]2CCC[C@@H](NC(=O)c3cc4cccc(C)c4[nH]3)C2)CC1 [compound 857]	–	7.4 µM	> 2 µM
Cc1ccc(F)c2cc(C(=O)Nc3cccc4c(N5CCN(C)CC5)[nH]nc34)[nH]c12 [compound 391]	2 µM	0.2 µM	–
Cc1ccc(F)c2cc(C(=O)N[C@@H]3CCCC(N4CCC5(CC4)CNC(=O)C5)C3)[nH]c12 (stereo partly drawn) [compound 896]	1.8 µM	0.1 µM	–
Cc1cccc2cc(C(=O)NC3CCC(NC(=O)Cc4cccnc4)CC3)[nH]c12 (stereo not drawn) [compound 605]	–	> 50 µM	> 25 µM

Structure (SMILES)	IC50 (H3K36me3 in A549 cells; Homo sapiens)	IC50 (SETD2(1434-1711))	IC50 (H3K36me3 in A549 cells)
Cc1ccc(F)c2cc(C(=O)Nc3cc(N4CCN(C)CC4)n4cncc4c3)[nH]c12 [compound 232]	0.5 µM	0.06 µM	–
Cc1ccc(F)c2cc(C(=O)Nc3cccc(CCN4CCN(C)CC4)c3)[nH]c12 [compound 244]	–	0.08 µM	0.6 µM
Cc1ccc(F)c2cc(C(=O)Nc3ccc4ncc(CN(C)C)n4c3)[nH]c12 [compound 536]	–	0.8 µM	> 25 µM
Cc1cccc2cc(C(=O)NCCc3ccccc3-n3ccnc3)[nH]c12 [compound 580]	> 25 µM	24.5 µM	–
Cc1cccc2cc(C(=O)Nc3ccc4cncnc4c3)[nH]c12 [compound 466]	–	1.9 µM	7 µM
Cc1cccc2cc(C(=O)NC(c3ncccc3Cl)C3CC3)[nH]c12 (stereo not drawn) [compound 419]	3.4 µM	0.8 µM	–
CC(=O)N1CCN(c2cc(F)cc(NC(=O)c3cc4c(F)cccc4[nH]3)c2)CC1 [compound 271]	0.8 µM	0.2 µM	–
Cc1ccc(F)c2cc(C(=O)Nc3cccc(N4CCN(CC5CC5)CC4)c3)[nH]c12 [compound 199]	–	0.05 µM	0.4 µM
Cc1ccc(F)c2cc(C(=O)Nc3cccc(-n4cnnc4)c3)[nH]c12 [compound 281]	0.9 µM	0.2 µM	–
Cc1ccc(F)c2cc(C(=O)Nc3cccc(C4(N)CC4)c3)[nH]c12 [compound 395]	–	0.1 µM	2.2 µM
Cc1ccc(F)c2cc(C(=O)N[C@@H]3CCC[C@H](N4CC5(CNC(=O)C5)C4)C3)[nH]c12 [compound 897]	0.1 µM	0.01 µM	–
Cc1cccc2cc(C(=O)Nc3ccc4nc(NC5CCNCC5)ncc4c3)[nH]c12 [compound 473]	–	0.2 µM	8.8 µM
Cc1ccc(F)c2cc(C(=O)Nc3cccc(N4CC[C@@H](N(C)C)[C@@H](C)C4)c3)[nH]c12 [compound 202]	–	0.02 µM	0.4 µM
Cc1cc(C(=O)O)cnc1C(NC(=O)c1cc2c(F)ccc(C)c2[nH]1)C1CC1 (stereo not drawn) [compound 544]	–	2.9 µM	> 25 µM
Cc1cccnc1C(CCC(=O)N(C)C)NC(=O)c1cc2cccc(C)c2[nH]1 (stereo not drawn) [compound 446]	5.4 µM	6.3 µM	–
Cc1ccc(F)c2cc(C(=O)Nc3cccc(-c4nncn4C)c3)[nH]c12 [compound 237]	–	0.1 µM	0.6 µM
CCN1CCN(c2cccc(NC(=O)c3cc4c(F)ccc(C)c4[nH]3)c2)CC1=O [compound 88]	–	0.05 µM	0.2 µM
Cc1ccc(F)c2cc(C(=O)Nc3cccc(-c4ccccn4)c3)[nH]c12 [compound 285]	1 µM	0.04 µM	–
Cc1ccc(F)c2cc(C(=O)Nc3cccc4c3cnn4C3CCN(C)CC3)[nH]c12 [compound 247]	0.6 µM	0.05 µM	–

Now from value to compound:

IC50 (H3K36me3 in A549 cells; Homo sapiens)	IC50 (SETD2(1434-1711))	IC50 (H3K36me3 in A549 cells)	Structure (SMILES)
–	0.03 µM	0.4 µM	CC(=O)N1CC2CCC1CN2C1CCCC(NC(=O)c2cc3c(F)ccc(C)c3[nH]2)C1 (stereo not drawn) [compound 961]
0.06 µM	0.05 µM	–	CC(=O)N1CCN([C@H]2CCC[C@@H](NC(=O)c3cc4c(F)ccc(C)c4[nH]3)C2)C2(CC2)C1 [compound 1024]
0.01 µM	0.01 µM	–	CC(=O)N1CCN([C@H]2CCC[C@@H](NC(=O)c3cc4c(F)ccc(C)c4[nH]3)C2)C[C@H]1C(F)(F)F [compound 1070]
–	0.05 µM	0.09 µM	CC(=O)N1CCN(C2CCCC(NC(=O)c3cc4c(F)ccc(C)c4[nH]3)C2)C(C)C1 (stereo not drawn) [compound 1021]
0.5 µM	0.03 µM	–	Cc1ccc(F)c2cc(C(=O)N[C@@H]3CCC[C@H](N4CCC5(CCC(=O)N5)CC4)C3)[nH]c12 [compound 938]
–	1.8 µM	> 2 µM	Cc1ccc(F)c2cc(C(=O)NC3CCCC(N4CCN(C(=O)NC5CCOCC5)CC4)C3)[nH]c12 (stereo not drawn) [compound 1170]
–	0.03 µM	0.3 µM	CC(=O)N1CC2CN(C3CCCC(NC(=O)c4cc5c(F)ccc(C)c5[nH]4)C3)CC2C1 (stereo not drawn) [compound 1177]
–	0.01 µM	0.02 µM	Cc1ccc(F)c2cc(C(=O)NC3CCCC(N4CCN5C(=O)COCC5C4)C3)[nH]c12 (stereo not drawn) [compound 1138]
0.01 µM	0.01 µM	–	CC(=O)N1[C@H](C)CN([C@H]2CCC[C@@H](NC(=O)c3cc4c(F)ccc(C)c4[nH]3)C2)C[C@H]1C [compound 1062]
0.01 µM	0.01 µM	–	CCC(=O)N1CCN([C@H]2CCC[C@@H](NC(=O)c3cc4c(F)ccc(C)c4[nH]3)C2)CC1C(F)(F)F (stereo partly drawn) [compound 1113]
–	0.7 µM	> 2 µM	Cc1ccc(F)c2cc(C(=O)NC3CCCC(N4CCN5C(=O)OCC5C4)C3)[nH]c12 (stereo not drawn) [compound 1136]
–	1.2 µM	> 2 µM	Cc1ccc(F)c2cc(C(=O)NC3CCCC(N4CCC(N(C)C(=O)C(C)(C)O)C4)C3)[nH]c12 (stereo not drawn) [compound 1147]
–	6.8 µM	> 2 µM	CC(=O)N1CC2CC1CN2C1CCCC(NC(=O)c2cc3c(F)ccc(C)c3[nH]2)C1 (stereo not drawn) [compound 937]
–	0.01 µM	0.03 µM	Cc1ccc(F)c2cc(C(=O)NC3CCCC(N4CCN5C(=O)CCCC5C4)C3)[nH]c12 (stereo not drawn) [compound 1078]
> 2 µM	2.9 µM	–	Cc1ccc(F)c2cc(C(=O)N[C@H]3CCC[C@@H](c4cccnc4)C3)[nH]c12 [compound 905]
0.3 µM	0.04 µM	–	Cc1ccc(F)c2cc(C(=O)N[C@@H]3CCC[C@H](c4cccnc4)C3)[nH]c12 [compound 903]
> 2 µM	5.3 µM	–	CC(=O)N1CCN([C@H]2C[C@H](NC(=O)c3cc4c(F)ccc(C)c4[nH]3)CN(C)C2)CC1 [compound 1107]
> 2 µM	4.3 µM	–	Cc1ccc(F)c2cc(C(=O)N[C@@H]3CCC[C@@H](N4CC5(CNC(=O)C5)C4)C3)[nH]c12 [compound 898]
–	4.9 µM	> 2 µM	Cc1ccc(F)c2cc(C(=O)NC3CCCC(N4CCC(N(C)C(=O)C5CC5)C4)C3)[nH]c12 (stereo not drawn) [compound 972]
–	0.4 µM	1.3 µM	Cc1ccc(F)c2cc(C(=O)NC3CCCC(N4CCN5C(=O)COCC5C4)C3)[nH]c12 (stereo not drawn) [compound 1141]
–	0.03 µM	0.6 µM	Cc1ccc(F)c2cc(C(=O)NC3CCCC(N4CCCN(S(C)(=O)=O)CC4)C3)[nH]c12 (stereo not drawn) [compound 981]
